According to US10844091B2 (priority 2017, dated 2020):
Marks after values point to notes of the source that are not given here. Non-standard residues stand in square brackets, D forms with d.

How the values were obtained:
[1] = tested on: malonic aldehyde; test: Malonic aldehyde content in the brain of rat models with Alzheimer's disease; format: in vivo; conditions: tetrapeptide 0.1 mg/kg
[2] = tested on: ATP; test: Brain ATP level in rat models with Alzheimer's disease; format: in vivo; conditions: tetrapeptide 0.1 mg/kg; as a trend
Method: (§1) The drugs were administered daily, once a day.
(§2) 1966, t. […] M. I. Prokhorova, Leningrad, pub. House LSU, 1982.—pp. 256-258].

[3] = tested on: serotonin; test: Serotonin level in the brain of rat models with Alzheimer's disease; format: in vivo; conditions: donepezil 1 mg/kg, tetrapeptide 0.1 mg/kg
Method: as §1
M. I. Prokhorova, Leningrad, pub.

[4] = Brain weight coefficient (BWC) in rat models with Alzheimer's disease; format: in vivo; conditions: statistically insignificant; donepezil 1 mg/kg, tetrapeptide 0.1 mg/kg
Method: as §1
(§3) The OF and EE tests were conducted on the 1st day, PST—on the 2nd day, CPAR—on the 1st and 10th day post treatment with the preparations. […] The antiamnesic action (AA) in the CPAR test was calculated using Butler's formula [K. S. Radionova. […] After that, the animals were removed from the experiment by administering a narcotic, followed by decapitation. The brain was extracted and weighed, and the brain weight coefficient (BWC) was calculated. Immediately after extraction, the brain was frozen in liquid nitrogen and used in subsequent biochemical and histochemical studies. Glucose levels in whole arterial (common carotid artery) and venous (venous cerebral sinus) blood were determined by the glucose oxidase test, the difference in the arterial-venous glucose content was calculated (glucose consumption marker). The levels of average weight molecules—the toxic products of cell biodegradation damaged during the disease (nucleoside derivatives, peptoids, glucuronic acid salts, etc.) in the blood serum (AWM) were calculated [A. N. Kovalevsky. Notes on the screening method of determination average weight molecules/A. N. Kovalevsky, O. Ye. Nifantiev//Lab. Science. […] 35-39].

[5] = tested on: rat models with AD; test: Porsolt swim test (PST), scopolamine-induced Alzheimer's disease model; format: in vivo; conditions: AD rats; donepezil 1 mg/kg i.p., tetrapeptide (LYS) 0.1 mg/kg i.n.
Method: (§4) White random-bred adult male rats weighing 200-240 g were used. Groups of 7 animals per group were formed. 1st group—control, 2nd—pathology, 3rd—comparator drug, 4th-6th—neuropeptides.
(§5) Scopolamine was administered i.p. to the animals in all groups except for the control at a 1 mg/kg dose daily, once a day for 27 days. From the 28th day on, the animals in groups 2 and 3 were administered the comparator drug and the claimed preparation respectively over the course of 10 days. The drugs were administered daily, once a day.
(§6) The tetrapeptides were administered i.n at a 0.1 mg/kg dose. The animals in the pathology group received 0.9% sodium chloride solution i.n. and i.p. as a placebo.
as §3

[6] = tested on: reduced glutathione; test: Reduced glutathione level in the brain of rat models with Alzheimer's disease; format: in vivo; conditions: tetrapeptide 0.1 mg/kg
Method: as §1
(§7) Standard biochemical methods were used to determine the content and activity of antioxidant defense enzymes and products of lipid peroxidation: malonic dialdehyde (MDA) [Modern Biochemistry Methods/[edited by V. N. Orekhovich]; M. Medicine, 1977, 392 pp]; superoxide dismutase (SOD) [O. P. Makarevich Activity of superoxide dismutase in blood in the acute period of various diseases/O. P. Makarevich, P. P. Golikov//Lab. Science, 1983, No 6, pp 24-27]; catalase [Methods for the Determination of Catalase Activity/M. A. Korolyuk, L. I. Ivanova, I. G. Mayorova, et al//Lab. Science, 1988, No 1, pp 16-19]; and reduced glutathione [T. A. Kochetov A Practical Guide to Enzymology. M. Nauka, 1980, 280 pp].

[7] = tested on: superoxide dismutase; test: Superoxide dismutase activity in the brain of rat models with Alzheimer's disease; format: in vivo; conditions: tetrapeptide 0.1 mg/kg
Method: as §1, §7

[8] = tested on: acetylcholine; test: Acetylcholine content in the brain homogenate of rat models with Alzheimer's disease; format: in vivo; conditions: compared to the control, pathology and donepezil groups, p<0.05
Method: as §1, §2

[9] = tested on: rat models with Alzheimer's disease; test: Extrapolation escape (EE) test, scopolamine-induced Alzheimer's disease model; format: in vivo
Method: as §4, §5, §6, §3

[10] = target: acetylcholinesterase (Rattus norvegicus, UniProt P37136); conditions: donepezil 1 mg/kg, tetrapeptide 0.1 mg/kg
Chain of acetylcholinesterase (P37136 32-614): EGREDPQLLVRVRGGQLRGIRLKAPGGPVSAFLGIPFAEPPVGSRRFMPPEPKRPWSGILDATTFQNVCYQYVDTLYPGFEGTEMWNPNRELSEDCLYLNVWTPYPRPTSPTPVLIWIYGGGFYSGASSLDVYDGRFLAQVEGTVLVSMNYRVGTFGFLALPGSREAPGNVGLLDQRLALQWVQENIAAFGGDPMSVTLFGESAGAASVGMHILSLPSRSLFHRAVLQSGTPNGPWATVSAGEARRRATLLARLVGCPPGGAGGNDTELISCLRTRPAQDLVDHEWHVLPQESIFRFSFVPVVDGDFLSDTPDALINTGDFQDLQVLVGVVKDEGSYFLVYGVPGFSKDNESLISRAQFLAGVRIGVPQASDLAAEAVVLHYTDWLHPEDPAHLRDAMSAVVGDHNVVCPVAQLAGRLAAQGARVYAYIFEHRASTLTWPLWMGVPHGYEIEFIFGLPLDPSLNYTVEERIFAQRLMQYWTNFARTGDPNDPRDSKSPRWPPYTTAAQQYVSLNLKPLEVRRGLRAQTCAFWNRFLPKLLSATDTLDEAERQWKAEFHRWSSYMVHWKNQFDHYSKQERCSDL
Method: as §5, §6
(§8) A procedure for the isolation of noradrenaline (together with adrenaline), dopamine, 5-hydroxy tryptamine and histamine from the same tissue sample using a single column of strongly acidic cation exchange resin 1C. […] Determination of ATP content in tissue//Methods for biochemical research/Edited by prof. M. I. Prokhorova, Leningrad, pub.

[11] = tested on: butyrylcholinesterase; conditions: tetrapeptide 0.1 mg/kg
Method: as §5, §6, §8

[12] = tested on: catalase; test: Catalase activity in the brain of rat models with Alzheimer's disease; format: in vivo; conditions: tetrapeptide 0.1 mg/kg; statistically significant
Method: as §1, §7

[13] = 3 min test, scopolamine 1 mg/kg i.p. 27 days, donepezil 1 mg/kg i.p. 10 days, peptide (LYS) 0.1 mg/kg i.n. 10 days

## acetyl-D-Lys-Lys-Arg-Arg-amide (Ac-[dK]KRR-NH2; SMILES CC(=O)N[C@H](CCCCN)C(=O)N[C@@H](CCCCN)C(=O)N[C@@H](CCCNC(=N)N)C(=O)N[C@@H](CCCNC(=N)N)C(N)=O) [tetrapeptide (LYS), peptide acetyl-X-ARG-ARG-amide, X = D- and L-amino acid residues of lysine]
[1]
  reduction of malonic aldehyde content in the brain relative to the pathology group: 39.8%
[2]
  brain ATP level: increased ATP level
[3]
  reduction of the serotonin level in the brain: 23.8%
[4]
  reduction of the brain weight coefficient (BWC): 14.3%
[5]
  Latent period of immobilization: 68.12 ± 6.15 s
  Number of immobilization acts: 6.21 ± 0.82
  Total duration of immobilization: 111.06 ± 13.25 s
[6]
  increase of the level of reduced glutathione in the brain: 36.6%
[7]
  increase of SOD activity compared to the pathology group: 22%
[8]
  content of acetylcholinesterase in the brain (FIG. 11): statistically significantly reduces
[9]; 0.1 mg/kg i.n. 10 days, p<0.05
  reduction of escape time compared to the pathology group: 3.8 times
[9]; 0.1 mg/kg i.n. vs donepezil 1 mg/kg, p<0.05
  escape time difference versus donepezil: 41.7%
[9]; [13]
  % of animals succeeded: 100%
  Escape time: 11.00 ± 3.07*^ sec.
[10]
  AChE activity in synapsosomes and in the whole brain homogenate: reduces
[11]
  butyrylcholinesterase activity in the brain: significantly increases
[12]
  reduction of the elevated activity of catalase: 1.1 times
